This note sets out measurements from patent US5958906A, “Phospholipid derivatives containing higher elements of the fifth main group” (ASTA-Medica Aktiengesellschaft, priority 1992, dated 1999).

Structures are written as SMILES. Values after ≈ are worked out from the molar mass of the structure shown. Where a name gives a salt, the structure may show the parent alone.

Data set [1] deals with KB cells. Nature of the data set: Soft-Agar-Colony-Assay with KB cells in vitro. The data set is classed as cell-based. The note with it: colony formation inhibited up to 90%, effective criterion EC90 <10 μg/ml; for IC90: Homo sapiens. On the procedure:
Tests with KB cells were carried out as a Soft-Agar-Colony-Assay in accordance with Salmon and Hamburger, N. Engl.
(§1) Values exceeding 100 indicate tumor regressions in relation to the starting size of the tumor. […] Values below 0 indicate that the tumor growth was stimulated. KB in vivo represents a tumor model in which KB cells are transplanted subcutaneously into naked NMRI mice. DMBA in vivo represents a tumor model in which tumors of the milk inguinal were induced chemically in female test rats by administering Dimethylbenzanthracen (DMBA). EC90 values which exceed 10 are considered ineffective.

Data set [2] has as its system tumors of the milk inguinal induced by Dimethylbenzanthracen (DMBA). In words: DMBA in vivo: tumors of the milk inguinal induced chemically by Dimethylbenzanthracen, growth inhibition index. The note with it: orally, >100 = tumor regression. Also on record: species or system female test rats. On the procedure:
(§2) The substances were administered orally in solution with the help of an esophagus probe (respective dosages in parenthesis).
(§3) Indicated is the growth inhibition index (Wachstumshemmungsindex WHI) in percent which was reached and which can be calculated as follows: [formula] with WC =median tumor weight difference in the reference group based on day 0
(§4) Wt =corresponding value for the treated group
as §1

Data set [3] concerns Leishmania mexicana (promastigotes). In words: Inhibiting effect on Leishmania mexicana (promastigotes). The data set is classed as cell-based. The note with it: partially mean values of two values. On the procedure: Tests measuring the inhibiting effect on Leishmania mexicana (promastigotes) were conducted in accordance with the procedures set forth in R. F. Stieger et al., European Journal of Biochemistry, Vol.105 (1980), pp.163-175 and D. T. Hardt, and F. R. Opperdoes, Molecular and Biochemical Parasitology Vol. 113 (1984), pp. 159-172.
Inhibiting effect on Leishmania mexicana (promastigotes),
indicated as EC90 values (partially mean values of two values)

The test system of data set [4] is L1210-cell. Nature of the data set: L1210-cell culture experiment. It counts as cell-based. The following applies: 90% growth inhibition in vitro vs control. An excerpt: The EC90 is the concentration of an anti-tumor substance in μg/ml which inhibits the growth of cancer cells by 90% in vitro compared to a control experiment without addition of the anti-tumor substance.

Data set [5] concerns KB cells. Nature of the data set: KB in vivo: KB cells transplanted subcutaneously into naked NMRI mice, growth inhibition index. The note with it: orally, >100 = tumor regression. On the procedure:
as §2, §3, §4, §1

A short description of data set [6]: LD50 on single administration per os in the mouse. The following applies: in vivo, po.

As for `CCCCCCCCCCCCCCCCCCOCC(COP(=O)([O-])OCC[As+](C)(C)C)OC` (racemic) [Example 24, 1-0-Octadecyl-2-0-methyl-rac-glycerophosphoarsenocholine], the “EC90 (KB cells in vitro)” value in data set [1] came out at 2.8 µg/mL. The “WHI (DMBA in vivo), growth inhibition index” value in data set [2] (4 × 100 mg/kg) was 73%. Moreover, the “EC90 inhibiting effect on Leishmania mexicana (promastigotes)” value in data set [3] was 0.9 µg/mL. Further, the EC90 – broadly, the concentration needed for an effect of 90% – in data set [3] (molar) turned out to be 1500 nM.
As for `CCCCCCCCCCCCCCCCCCOCC(COP(=O)([O-])OCC[P+](C)(C)C)OC` (racemic) [Example 25], the IC90 – broadly, the concentration at which the effect reaches the 90% level – in data set [1] worked out at 2.7 µg/mL (≈ 4.99 µM). In addition, the EC90 in data set [3] (Leishmania mexicana) turned out to be 1.8 µg/mL; in data set [3] (Leishmania mexicana, molar), 3300 ± 370 nM.
In the case of `CCCCCCCCCCCCCCCCCCOP(=O)([O-])OCC[As+](C)(C)C` [Example 1, 2-[[(Octadecyloxy)hydroxyphosphenyl]oxy]-As,As,As-trimethyl ethyl arsonium inner salt], in data set [1], the “EC90 (KB cells in vitro)” value was found to be 3.2 µg/mL. Moreover, the “WHI (DMBA in vivo), growth inhibition index” value in data set [2] (4 × 100 mg/kg) amounted to 112.8%. Further, the “EC90 inhibiting effect on Leishmania mexicana (promastigotes)” value in data set [3] came to 0.8 µg/mL. The EC90 in data set [3] (molar) worked out at 1800 nM; in data set [4], 2.9 µg/mL. The “WHI (KB in vivo), growth inhibition index” value in data set [5] (1 × 511 mg/kg) is given as 42.9%.
`CCCCCCCCCCCCCCCCOP(=O)([O-])OCC[As+](C)(C)C` [Example 2, 2-[[(hexadecyloxy)hydroxyphosphinyl]oxy]-As,As,As-trimethyl ethyl arsonium inner salt]: the “EC90 (KB cells in vitro)” value in data set [1] was 27 µg/mL.
As for `CCCCCCCC/C=C\CCCCCCCCCCCCOP(=O)([O-])OCC[As+](C)(C)C` [Example 3, 2-[[(cis-13-docosenyloxy)hydroxyphosphinyl]oxy-As,As,As-trimethylethylarsoniuminner salt], the “EC90 (KB cells in vitro)” value in data set [1] is over 10 µg/mL. Besides, in data set [6], the LD50 (as a rule, the dose at which mortality reaches 50%) was over 1470 mg/kg.
In turn, `CCCCCCCCCCCCCCCCCCOP(=O)([O-])OCC[P+](C)(C)C` [Example 4, 2-[[(octadecyloxy)hydroxyphosphinyl]oxy]-P,P,P-trimethyl ethyl phosphonium inner salt] showed an IC90 in data set [1] of 3.1 µg/mL. Also, the “WHI (DMBA in vivo), growth inhibition index” value in data set [2] (4 × 147 mg/kg) was found to be 108.7%. For the same compound, the EC90 worked out at 0.8 µg/mL in data set [3] (Leishmania mexicana) and 1800 ± 220 nM in data set [3] (Leishmania mexicana, molar). Further, the “WHI (KB in vivo), growth inhibition index” value in data set [5] (2 × 316 mg/kg) is 111%.
Compound `CCCCCCCCCCCCCCCCOP(=O)([O-])OCC[P+](C)(C)C` [Example 5, 2-[[(hexadecyloxy)hydroxyphosphinyl]oxy]-P,P,P-trimethyl ethyl phosphonium inner salt] gave an IC90 in data set [1] of over 10 µg/mL.
On to `CCCCCCCC/C=C\CCCCCCCCCCCCOP(=O)([O-])OCC[P+](C)(C)C` [Example 6, 2-[[(Cis-13-docosenyloxy) hydroxyphosphinyl]oxy]-P,P,P-trimethylethyl phosphonium inner salt], for which the IC90 in data set [1] was over 10 µg/mL. The “WHI (DMBA in vivo), growth inhibition index” value in data set [2] (4 × 147 mg/kg) worked out at 43.9%.
Regarding `CCCCCCCCCCCCCCCCCCOP(=O)([O-])OCC[As+](CC)(CC)CC` [Example 7, 2-[[(Octadecyloxy)hydroxyphosphinyl]oxy]-As,As,As-triethyl ethyl arsonium inner salt], the “EC90 (KB cells in vitro)” value in data set [1] stood at 3.0 µg/mL.
Same read-out and setting: the same measure for `CCCCCCCCCCCCCCCCOP(=O)([O-])OCC[As+](CC)(CC)CC` [Example 8, 2-[[(Hexadecyloxy)hydroxyphosphinyl]oxy]-As,As,As-tri-ethyl ethyl arsonium inner salt]: over 10 µg/mL; for `CCCCCCCC/C=C\CCCCCCCCCCCCOP(=O)([O-])OCC[As+](CC)(CC)CC` [Example 9, 2-[[Cis-13-docosenyloxy)hydroxyphosphinyl]oxy]-As,As,As-triethylethyl arsonium inner salt]: over 10 µg/mL.
As to `CCCCCCCCCCCCCCCCCCOP(=O)([O-])OCCC[As+](C)(C)C` [Example 10, 3-[[(Octadecyloxy)hydroxyphosphinyl]oxy]-As,As,As-trimethyl propylarsonium inner salt], the “EC90 (KB cells in vitro)” value in data set [1] is 5.8 µg/mL. The “WHI (KB in vivo), growth inhibition index” value in data set [5] (2 × 316 mg/kg) amounted to 104%.
`CCCCCCCCCCCCCCCCOP(=O)([O-])OCCC[As+](C)(C)C` [Example 11, 3-[[(Hexadecyloxy)hydroxyphosphinyl]oxy]-As,As,As-trimethyl propylarsonium inner salt]: the “EC90 (KB cells in vitro)” value in data set [1] is over 10 µg/mL.
Still for that read-out and setting: the same measure for `CCCCCCCC/C=C\CCCCCCCCCCCCOP(=O)([O-])OCCC[As+](C)(C)C` [Example 12, 3-[[(Cis-13-docosenyloxy)hydroxyphosphinyl]oxy]-As,As,As-trimethylpropyl arsonium inner salt]: over 10 µg/mL.
Take `CCCCCCCC/C=C\CCCCCCCCCCCCOP(=O)([O-])OCCC[P+](C)(C)C` [Example 13, 3-[[(Cis-13-docosenyloxy)hydroxyphosphinyl]oxy]-P,P,P-tri-methylpropyl phosphonium inner salt]: in data set [1], the IC90 is over 10 µg/mL.
Turning to `CCCCCCCCCCCCCCCCCCOP(=O)([O-])OCCC[P+](C)(C)C` [Example 14, 3-[[(Octadecyloxy)hydroxyphosphinyl]oxy]-P,P,P-trimethylpropyl phosphonium inner salt], it took 3 µg/mL to reach the 90% level in data set [1] (IC90).
Same read-out and setting: the same measure for `CCCCCCCCCCCCCCCCOP(=O)([O-])OCCC[P+](C)(C)C` [Example 15, 3-[[(Hexadecyloxy)hydroxyphosphinyl]oxy]-P,P,P-trimethylpropyl phosphonium inner salt]: over 10 µg/mL.
`CCCCCCCCCCCCCCCCCCCOP(=O)([O-])OCC[P+](C)(C)C` [Example 16, 3-[[(Nonadecyloxy)hydroxyphosphinyl]oxy]-P,P,P-trimethyl-ethyl phosphonium inner salt] gave an IC90 in data set [1] of 2.6 µg/mL.
For the compound `CCCCCCCCCCCCCCCCCCCCOP(=O)([O-])OCC[P+](C)(C)C` [Example 17, 3-[[(Eicosyloxy)hydroxyphosphinyl]oxy]-P,P,P-trimethylethyl phosphonium inner salt], it took 3 µg/mL to reach the 90% level in data set [1] (IC90).
Consider `CCCCCCCCCCCCCCCCCCCOP(=O)([O-])OCC[As+](C)(C)C` [Example 18, 2-[[(Nonadecyloxy)hydroxyphosphinyl]oxy]-As,As,As-trimethethyl arsonium inner salt], for which, in data set [1], the “EC90 (KB cells in vitro)” value turned out to be 3.0 µg/mL.
Still for that read-out and setting: the same measure for `CCCCCCCCCCCCCCCCCCCCOP(=O)([O-])OCC[As+](C)(C)C` [Example 19, 2-[[(Eicosyloxy)hydroxyphosphinyl]oxy]-As,As,As-trimethylethyl arsonium inner salt]: “insoluble”; for `CCCCCCCCCCCCCCCCCOP(=O)([O-])OCC[As+](C)(C)C` [Example 20, 2-[[(Heptadecyloxy)hydroxyphosphinyl]oxy]-As,As,As-trimethylethyl arsonium inner salt]: 3.2 µg/mL.
In data set [1], `CCCCCCCCCCCCCCCCCCOP(=O)([O-])OCC[P+](CC)(CC)c1ccccc1` [Example 21, 2-[[(Octadecyloxy)hydroxyphosphinyl]oxy]-P,P-diethyl-P-phenyl-ethyl phosphonium inner salt] displayed an IC90 of 3.1 µg/mL.
Same read-out and setting: with `CCCCCCCC/C=C\CCCCCCCCCCCCOP(=O)([O-])OCC[P+](CC)(CC)c1ccccc1` [Example 22, 2-[[(Cis-13-docosenyloxy)hydroxyphosphinyl]oxy]-P,P-diethyl P-phenyl-ethyl phosphonium inner salt] the figure was 3.1 µg/mL.
As for `CCCCCCCCCCCCC1CCC(COP(=O)([O-])OCC[As+](C)(C)C)CC1` (stereo not drawn) [Example 23, 2-[[(4'-Dodecylcyclohexyl)methyloxy)hydroxyphosphinyl]oxy]As,As,As-trimethylethyl arsonium inner salt], the “EC90 (KB cells in vitro)” value in data set [1] was over 10 µg/mL.
